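A five-concentration, 48-hour dose response in 96-well plates underlies each endpoint, interpolated linearly between surrounding concentrations. At the GI50, growth is halved. TGI: concentration producing complete growth inhibition.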
Assays:
Test in all cases: NCI-60 cell line screen, 48 h
SNB-19 CNS = system: SNB-19 CNS
UACC-257 melanoma = system: UACC-257 melanoma
IGROV1 ovarian = system: IGROV1 ovarian
786-0 renal = system: 786-0 renal
MALME-3M melanoma = system: MALME-3M melanoma
OVCAR-5 ovarian = system: OVCAR-5 ovarian
SK-MEL-2 melanoma = system: SK-MEL-2 melanoma
SN12C renal = system: SN12C renal
DU-145 prostate = system: DU-145 prostate
NCI/ADR-RES ovarian = system: NCI/ADR-RES ovarian

SMILES	TGI (SNB-19 CNS) [µM]	TGI (UACC-257 melanoma) [µM]	TGI (IGROV1 ovarian) [µM]	TGI (786-0 renal) [µM]	TGI (MALME-3M melanoma) [µM]	TGI (OVCAR-5 ovarian) [µM]	TGI (SK-MEL-2 melanoma) [µM]	TGI (SN12C renal) [µM]	TGI (DU-145 prostate) [µM]	GI50 (SNB-19 CNS) [µM]	GI50 (NCI/ADR-RES ovarian) [µM]	TGI (NCI/ADR-RES ovarian) [µM]	GI50 (DU-145 prostate) [µM]	GI50 (UACC-257 melanoma) [µM]	GI50 (IGROV1 ovarian) [µM]	GI50 (786-0 renal) [µM]	GI50 (SK-MEL-2 melanoma) [µM]	GI50 (SN12C renal) [µM]	GI50 (MALME-3M melanoma) [µM]	GI50 (OVCAR-5 ovarian) [µM]
C=C1C(=O)OC2C/C(C)=C/CC/C(C)=C/CCC3(COC(C)=O)OC3CC12 (centres undefined)	31.4	29.6	31.9	17.4	25.7	30.5	14.4	34.1	–	–	–	–	–	–	–	–	–	–	–	–
O=C1CC2C(=O)c3ccccc3CC2c2ccccc21 (centres undefined)	> 100	75.2	> 100	> 100	> 100	> 100	> 100	> 100	> 100	–	–	–	–	–	–	–	–	–	–	–
CCc1ccc(NC(=O)NC(=O)c2ccccc2[N+](=O)[O-])cc1Oc1ncc(Cl)cn1	> 100	> 100	> 100	1.01	> 100	> 100	–	> 100	> 100	–	–	–	–	–	–	–	–	–	–	–
Cc1ccc(NC(=O)CCc2nc(N)nc(N)c2-c2ccccc2)cc1C	> 100	> 100	> 100	> 100	> 100	> 100	> 100	> 100	–	–	–	–	–	–	–	–	–	–	–	–
Cn1c(-c2c(N)n(Nc3cccc(Cl)c3)c3nc(C#N)c(C#N)nc23)nc2ccccc21	24.3	15.9	12.6	37.3	–	–	18.9	12.5	15.4	10.7	0.837	14.1	6.46	6.18	1.27	8.91	5.85	5.15	–	–
COc1ccc(N=NC(C(=O)c2ccccc2)C(=O)c2ccccc2)cc1	80.3	> 100	> 100	61	97	87.1	61.2	78.8	–	–	–	–	–	–	–	–	–	–	–	–
CCOC(=O)C(Cc1c[nH]c2c(N(CCO)CCO)cccc12)(NC(C)=O)C(=O)OCC	> 1000	> 1000	> 1000	> 1000	> 1000	> 1000	–	290	> 1000	> 1000	> 1000	> 1000	499	> 1000	643	> 1000	–	141	202	> 1000
C#Cc1cccc(N2C(=O)c3c(c(-c4ccccc4)c(-c4ccc(Cc5ccc(-c6c(-c7ccccc7)c7c(c(-c8ccccc8)c6-c6ccccc6)C(=O)N(c6cccc(C#C)c6)C7=O)cc5)cc4)c(-c4ccccc4)c3-c3ccccc3)C2=O)c1	> 100	> 100	45.2	> 100	> 100	> 100	> 100	> 100	–	–	–	–	–	–	–	–	–	–	–	–
COc1ccc(/C=C/C(=O)/C=C/c2cc3ccccc3[nH]c2=O)cc1	29	25.3	5.1	3.51	35.6	19.9	–	6.73	10.3	10.6	20.5	> 100	3.36	10.8	2.21	1.87	–	2.41	9.17	5.13
O=c1/c(=C/c2ccccc2[N+](=O)[O-])sc2nc3ccccc3n12	> 77.9	> 46.4	> 46.4	> 46.4	> 46.4	> 46.4	> 46.4	> 46.4	–	–	–	–	–	–	–	–	–	–	–	–
COc1ccc(NC(=O)CC2SC(=Nc3ccccc3C)NC2=O)c([N+](=O)[O-])c1 (centres undefined)	> 100	> 100	> 100	> 100	> 100	> 100	> 100	> 100	–	–	–	–	–	–	–	–	–	–	–	–
COc1ccc(OC)c(NC(=O)CCC/C(CC(=O)c2ccc(O)c(OC)c2)=N\Nc2nnc(C)n2N)c1	> 100	> 100	> 100	> 100	> 100	> 100	> 100	> 100	–	–	–	–	–	–	–	–	–	–	–	–
C/C=C(/I)CBr	63.5	–	33.7	30.8	31.4	–	28.4	34.1	–	–	–	–	–	–	–	–	–	–	–	–
COc1ccc(NC(=O)/C(=C/c2ccccc2)C(C)=O)cc1	33.4	29.3	38.6	28.6	32.3	34.1	28.6	31.4	–	–	–	–	–	–	–	–	–	–	–	–
S=c1snc2n1CCN2	> 100	> 100	> 100	> 100	> 100	> 100	–	86.8	> 100	> 100	> 100	> 100	91.3	> 100	> 100	91.7	–	10.6	> 100	> 100
COc1ccc(NC(=O)CSC2=C(Nc3cccc(Br)c3)C(=O)N(Cc3ccccc3)C2=O)cc1Cl	> 100	> 100	> 100	> 100	–	–	> 100	> 100	> 100	> 100	–	–	> 100	> 100	30.7	> 100	> 100	> 100	–	–
CCNC(=O)COc1ccc(Br)cc1Br	> 100	> 100	> 100	> 100	> 100	> 100	> 100	> 100	–	–	–	–	–	–	–	–	–	–	–	–
O=C(/C=C/C12c3ccccc3C(c3ccccc31)C1C(=O)NC(=O)C12)c1ccc(Cl)cc1Cl (centres undefined)	3.03	3.46	4.27	3.22	3.12	3.3	3.62	3.29	3.43	1.62	–	–	1.83	1.76	1.97	1.7	1.9	1.77	1.71	1.72
O=C(/C=C/c1ccccc1)C(Br)C(Br)c1ccccc1 (centres undefined)	17.7	3.66	–	4.31	–	3.39	3.6	4.65	3.24	4.72	3.37	19	1.64	1.59	–	1.91	1.82	2	–	1.67
CC(Oc1ccc2c(-c3ccccc3)cc(=O)oc2c1)C(=O)O (centres undefined)	> 100	> 100	> 100	> 100	> 100	–	–	> 100	–	–	–	–	–	–	–	–	–	–	–	–
